System: 885724-159-R-J1-PDC KRAS PDC multicell spheroid viability
Assay: Anticancer human tumor 885724-159-R-J1-PDC patient-derived pancreatic adenocarcinoma cell line growth inhibition [KRAS2]
Conditions: for IC50: curve of first compound; for viability, T/C: stronger effect = lower value
Outline: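 KRAS-mutant tumor cells were grown as spheroids with HUVEC endothelial cells and human MSCs as stroma. Targeted agents were tested alone and with KRAS pathway inhibitors. Doses started at or near clinical Cmax, or 10 microM, descending half-log.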

[1] = second compound 0.1 µM, first compound 0.0316 µM
[2] = second compound 0.1 µM, first compound 0.1 µM
[3] = second compound 0.316 µM, first compound 0.0316 µM
[4] = second compound 0.316 µM, first compound 0.1 µM
[5] = second compound 1 µM, first compound 0.0316 µM
[6] = second compound 1 µM, first compound 0.1 µM
[7] = second compound 3.16 µM, first compound 0.0316 µM
[8] = second compound 3.16 µM, first compound 0.1 µM
[9] = second compound 10 µM, first compound 0.0316 µM
[10] = second compound 10 µM, first compound 0.1 µM
[11] = second compound 0.1 µM, first compound 0.000316 µM
[12] = second compound 0.1 µM, first compound 0.001 µM
[13] = second compound 0.1 µM, first compound 0.00316 µM
[14] = second compound 0.1 µM, first compound 0.01 µM
[15] = second compound 0.316 µM, first compound 0.000316 µM
[16] = second compound 0.316 µM, first compound 0.001 µM
[17] = second compound 0.316 µM, first compound 0.00316 µM
[18] = second compound 0.316 µM, first compound 0.01 µM
[19] = second compound 1 µM, first compound 0.000316 µM
[20] = second compound 1 µM, first compound 0.001 µM
[21] = second compound 1 µM, first compound 0.00316 µM
[22] = second compound 1 µM, first compound 0.01 µM
[23] = second compound 3.16 µM, first compound 0.000316 µM
[24] = second compound 3.16 µM, first compound 0.001 µM
[25] = second compound 3.16 µM, first compound 0.00316 µM
[26] = second compound 3.16 µM, first compound 0.01 µM
[27] = second compound 10 µM, first compound 0.000316 µM
[28] = second compound 10 µM, first compound 0.001 µM
[29] = second compound 10 µM, first compound 0.00316 µM
[30] = second compound 10 µM, first compound 0.01 µM
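Further: spheroids exposed to agents for 7 days before readout.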

Row | Structure (SMILES) | IC50 (second compound 0.1 µM) [µM] | IC50 (second compound 0.316 µM) [µM] | IC50 (second compound 1 µM) [µM] | IC50 (second compound 3.16 µM) [µM] | IC50 (second compound 10 µM) [µM] | viability, T/C [1] [%] | viability, T/C [2] [%] | viability, T/C [3] [%] | viability, T/C [4] [%] | viability, T/C [5] [%] | viability, T/C [6] [%] | viability, T/C [7] [%] | viability, T/C [8] [%] | viability, T/C [9] [%] | viability, T/C [10] [%] | viability, T/C [11] [%] | viability, T/C [12] [%] | viability, T/C [13] [%] | viability, T/C [14] [%] | viability, T/C [15] [%] | other results
1 | CCNC(=O)CC1N=C(c2ccc(Cl)cc2)c2cc(OC)ccc2-n2c(C)nnc21 (stereo not given) + CNCc1ccccc1-c1csc(C(C)Nc2nc(C)nc3cc(OC)c(OC)cc23)c1 | > 10 | > 10 | > 10 | < 0.0316 | < 0.0316 | 122 | 114 | 118 | 113 | 110 | 116 | 1.45 | 11.5 | 0.33 | 0.2 | – | – | – | – | – | viability, T/C (second compound 0.1 µM, first compound 0.316 µM): 77.3%; viability, T/C (second compound 0.1 µM, first compound 1 µM): 63.2%; viability, T/C (second compound 0.1 µM, first compound 3.16 µM): 53.7%; viability, T/C (second compound 0.1 µM, first compound 10 µM): 52.5%; viability, T/C (second compound 0.316 µM, first compound 0.316 µM): 81.9%; viability, T/C (second compound 0.316 µM, first compound 1 µM): 61.8%; viability, T/C (second compound 0.316 µM, first compound 3.16 µM): 55.1%; viability, T/C (second compound 0.316 µM, first compound 10 µM): 48.3%; viability, T/C (second compound 1 µM, first compound 0.316 µM): 79.1%; viability, T/C (second compound 1 µM, first compound 1 µM): 59.7%; viability, T/C (second compound 1 µM, first compound 3.16 µM): 52.6%; viability, T/C (second compound 1 µM, first compound 10 µM): 49.7%; viability, T/C (second compound 3.16 µM, first compound 0.316 µM): 1.37%; viability, T/C (second compound 3.16 µM, first compound 1 µM): 1.56%; viability, T/C (second compound 3.16 µM, first compound 3.16 µM): 0.16%; viability, T/C (second compound 3.16 µM, first compound 10 µM): 0.43%; viability, T/C (second compound 10 µM, first compound 0.316 µM): 0.25%; viability, T/C (second compound 10 µM, first compound 1 µM): 0.16%; viability, T/C (second compound 10 µM, first compound 3.16 µM): 0.18%; viability, T/C (second compound 10 µM, first compound 10 µM): 0.26%
2 | CC(C)n1nc(-c2ccc3oc(N)nc3c2)c2c(N)ncnc21 + CC1OCC2(CCN(c3cnc(Sc4ccnc(N)c4Cl)c(N)n3)CC2)C1N | 0.0633 | 0.0498 | 0.033 | 0.012 | 0.0131 | 53.5 | 46.8 | 55.7 | 44.8 | 53.4 | 43.5 | 45.5 | 47.3 | 44.1 | 39.6 | 90.5 | 79 | 69.8 | 64.8 | 86.5 | viability, T/C [16]: 75.7%; viability, T/C [17]: 65%; viability, T/C [18]: 58.6%; viability, T/C [19]: 76.2%; viability, T/C [20]: 69.1%; viability, T/C [21]: 63.2%; viability, T/C [22]: 53.6%; viability, T/C [23]: 77.7%; viability, T/C [24]: 79.3%; viability, T/C [25]: 61.5%; viability, T/C [26]: 53.3%; viability, T/C [27]: 72.6%; viability, T/C [28]: 70%; viability, T/C [29]: 63.2%; viability, T/C [30]: 51.5%
3 | CN(C)C/C=C/C(=O)Nc1cc2c(Nc3ccc(F)c(Cl)c3)ncnc2cc1O[C@H]1CCOC1 + CNCc1ccccc1-c1csc(C(C)Nc2nc(C)nc3cc(OC)c(OC)cc23)c1 | > 0.1 | > 0.1 | > 0.1 | 0.00235 | < 0.000316 | 77.9 | 66.7 | 74 | 63.4 | 70.3 | 67.5 | 71.9 | 38 | 0.22 | 0.25 | 104 | 95.4 | 93.2 | 89.8 | 108 | viability, T/C [16]: 107%; viability, T/C [17]: 86.6%; viability, T/C [18]: 81.7%; viability, T/C [19]: 109%; viability, T/C [20]: 104%; viability, T/C [21]: 94.6%; viability, T/C [22]: 83.1%; viability, T/C [23]: 105%; viability, T/C [24]: 123%; viability, T/C [25]: 0.97%; viability, T/C [26]: 0.27%; viability, T/C [27]: 0.22%; viability, T/C [28]: 0.26%; viability, T/C [29]: 0.18%; viability, T/C [30]: 0.15%

From PubChem BioAssay AID1963861 (Molecular Pharmacology Branch, DTP, NCI, 2024)
